{
  "source": "ChEMBL document CHEMBL6120971",
  "about": "(J Med Chem, 2024)",
  "key": {"[1]": {"experiment": "MRT (0 to infinity) in male Sprague-Dawley rat at 10 mg/kg, iv measured after 24 hrs by LC-MS/MS analysis", "type": "ADME, organism-based", "details": "in vivo"}, "[2]": {"experiment": "Toxicity in BALB/c nude mouse xenografted with human MKN-45 cells assessed as body weight loss at 10 to 40 mg/kg, po administered once daily for 21 days", "type": "organism-based", "details": "in vivo, 504 h, dose 10-40 mg/kg, time 21 day"}, "MKN-45 [3]": {"tested_on": "MKN-45", "experiment": "Upregulation of PDCD4 protein level in human MKN-45 cells at 100 nM incubated for 24 hrs by MS-based quantitative proteomics analysis", "type": "functional, cell-based"}, "[4]": {"molecular_target": "T1, Protein cereblon/Hepatocyte growth factor receptor (Homo sapiens, UniProt P08581+Q96SW2)", "T1 sequence (P08581 25-1390 limits assumed)": "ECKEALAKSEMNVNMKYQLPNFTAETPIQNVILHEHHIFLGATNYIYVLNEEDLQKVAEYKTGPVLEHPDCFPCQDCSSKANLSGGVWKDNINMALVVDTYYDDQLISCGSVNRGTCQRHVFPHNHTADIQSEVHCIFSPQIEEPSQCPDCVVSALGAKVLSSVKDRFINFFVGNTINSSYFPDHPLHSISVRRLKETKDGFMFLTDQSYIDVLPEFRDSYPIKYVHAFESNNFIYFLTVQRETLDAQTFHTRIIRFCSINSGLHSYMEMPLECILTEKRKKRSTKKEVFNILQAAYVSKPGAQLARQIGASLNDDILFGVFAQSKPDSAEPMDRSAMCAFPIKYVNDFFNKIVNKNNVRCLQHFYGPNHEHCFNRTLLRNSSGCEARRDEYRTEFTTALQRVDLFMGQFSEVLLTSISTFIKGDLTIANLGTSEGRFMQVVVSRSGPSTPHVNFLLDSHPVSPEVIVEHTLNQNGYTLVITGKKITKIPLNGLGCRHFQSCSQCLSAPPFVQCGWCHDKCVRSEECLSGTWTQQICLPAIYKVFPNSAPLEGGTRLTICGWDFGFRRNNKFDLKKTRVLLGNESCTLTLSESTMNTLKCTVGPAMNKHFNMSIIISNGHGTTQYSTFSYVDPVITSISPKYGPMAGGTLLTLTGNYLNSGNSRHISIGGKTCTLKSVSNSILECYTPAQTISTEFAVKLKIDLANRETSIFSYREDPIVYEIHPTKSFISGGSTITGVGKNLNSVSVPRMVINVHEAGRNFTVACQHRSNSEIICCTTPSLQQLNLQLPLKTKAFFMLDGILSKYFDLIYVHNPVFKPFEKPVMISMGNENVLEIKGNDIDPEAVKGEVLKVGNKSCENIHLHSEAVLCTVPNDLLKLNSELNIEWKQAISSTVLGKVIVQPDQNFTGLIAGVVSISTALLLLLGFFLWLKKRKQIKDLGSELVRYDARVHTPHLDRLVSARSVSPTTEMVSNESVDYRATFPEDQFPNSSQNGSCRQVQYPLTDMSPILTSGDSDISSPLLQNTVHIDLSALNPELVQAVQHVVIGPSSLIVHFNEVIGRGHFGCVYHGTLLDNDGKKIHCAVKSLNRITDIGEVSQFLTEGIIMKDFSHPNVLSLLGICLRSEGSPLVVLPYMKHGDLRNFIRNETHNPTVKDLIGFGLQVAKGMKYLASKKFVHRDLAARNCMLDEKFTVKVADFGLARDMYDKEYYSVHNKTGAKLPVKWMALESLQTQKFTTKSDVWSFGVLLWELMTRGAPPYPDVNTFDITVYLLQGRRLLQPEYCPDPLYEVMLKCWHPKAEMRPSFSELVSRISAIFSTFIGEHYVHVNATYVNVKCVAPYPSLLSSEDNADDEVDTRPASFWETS", "T1 sequence (Q96SW2 whole entry partner)": "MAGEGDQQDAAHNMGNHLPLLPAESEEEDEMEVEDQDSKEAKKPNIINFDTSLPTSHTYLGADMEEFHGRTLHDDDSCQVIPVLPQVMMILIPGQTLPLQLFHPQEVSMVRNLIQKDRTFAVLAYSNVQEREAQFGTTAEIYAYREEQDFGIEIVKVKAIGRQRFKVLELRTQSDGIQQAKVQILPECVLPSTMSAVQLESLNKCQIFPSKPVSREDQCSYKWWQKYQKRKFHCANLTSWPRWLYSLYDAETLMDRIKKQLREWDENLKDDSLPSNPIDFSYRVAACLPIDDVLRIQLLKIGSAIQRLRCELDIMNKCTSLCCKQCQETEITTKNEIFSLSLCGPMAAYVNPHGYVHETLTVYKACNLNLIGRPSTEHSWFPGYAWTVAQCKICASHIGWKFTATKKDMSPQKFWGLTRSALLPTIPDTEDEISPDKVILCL", "experiment": "In vivo PROTAC activity at CRBN/c-MET in BALB/c nude mouse xenografted with human MKN-45 cells assessed as decrease in c-MET protein level in tumor at 10 to 40 mg/kg, po administered once daily for 21 days and measured after 24 hrs post last dose by Western blot analysis", "type": "functional, organism-based", "details": "dose 10-40 mg/kg, time 22.0 day"}, "Mus musculus [5]": {"tested_on": "Mus musculus", "experiment": "Downregulation of c-MET protein level in BALB/c nude mouse liver xenografted with human MKN-45 cells at 10 mg/kg, po measured after 48 hrs by Western blot analysis", "type": "functional, organism-based"}, "[6]": {"experiment": "Toxicity in BALB/c nude mouse xenografted with human MKN-45 cells assessed as effect on liver morphology at 10 to 40 mg/kg, po administered once daily for 21 days by H and E staining based analysis", "type": "organism-based", "details": "in vivo, 504 h, dose 10-40 mg/kg, time 21 day"}, "[7]": {"molecular_target": "T1, Protein cereblon/Hepatocyte growth factor receptor", "experiment": "PROTAC activity at CRBN/c-MET in human PC-3 cells assessed as induction of c-MET degradation at 12.5 to 100 nM incubated for 24 hrs by Western blot analysis", "type": "cell-based", "details": "dose 12.5-100 nM"}, "[8]": {"experiment": "Half-life in male Sprague-Dawley rat at 10 mg/kg, po measured after 24 hrs by LC-MS/MS analysis", "type": "ADME, organism-based", "details": "in vivo"}, "[9]": {"molecular_target": "T1, Protein cereblon/Hepatocyte growth factor receptor", "experiment": "PROTAC activity at CRBN/c-MET in human Hs746T cells assessed as induction of c-MET degradation at 12.5 to 200 nM incubated for 24 hrs by Western blot analysis", "type": "cell-based", "details": "dose 12.5-200 nM"}, "[10]": {"experiment": "AUC (0 to infinity) in male Sprague-Dawley rat at 10 mg/kg, iv measured after 24 hrs by LC-MS/MS analysis", "type": "ADME, organism-based", "details": "in vivo"}, "[11]": {"experiment": "Oral bioavailability in male Sprague-Dawley rat at 10 mg/kg measured after 24 hrs by LC-MS/MS analysis", "type": "ADME, organism-based", "details": "in vivo"}, "[12]": {"experiment": "Tmax in male Sprague-Dawley rat at 10 mg/kg, po measured after 24 hrs by LC-MS/MS analysis", "type": "ADME, organism-based", "details": "in vivo"}, "[13]": {"experiment": "MRT (0 to infinity) in male Sprague-Dawley rat at 10 mg/kg, po measured after 24 hrs by LC-MS/MS analysis", "type": "ADME, organism-based", "details": "in vivo"}, "[14]": {"molecular_target": "T1, Protein cereblon/Hepatocyte growth factor receptor", "experiment": "PROTAC activity at CRBN/c-MET in human MKN-45 cells assessed as induction of c-MET degradation at 100 to 1000 nM incubated for 24 hrs by Western blot analysis relative to control", "type": "cell-based", "details": "dose 100-1000 nM"}, "[15]": {"experiment": "Half-life in male Sprague-Dawley rat at 10 mg/kg, iv measured after 24 hrs by LC-MS/MS analysis", "type": "ADME, organism-based", "details": "in vivo"}, "MKN-45 [16]": {"tested_on": "MKN-45", "experiment": "Antiproliferative activity against human MKN-45 cells incubated for 72 hrs by CCK8 assay", "type": "functional, cell-based", "details": "MKN-45, 72 h"}, "MKN-45 [17]": {"tested_on": "MKN-45", "experiment": "Downregulation of CHCHD2 protein level in human MKN-45 cells at 100 nM incubated for 24 hrs by MS-based quantitative proteomics analysis", "type": "functional, cell-based"}, "Mus musculus [18]": {"tested_on": "Mus musculus", "experiment": "Downregulation of c-MET protein level in BALB/c nude mouse stomach xenografted with human MKN-45 cells at 10 mg/kg, po measured after 48 hrs by Western blot analysis", "type": "functional, organism-based"}, "Mus musculus [19]": {"tested_on": "Mus musculus", "experiment": "Downregulation of c-MET protein level in BALB/c nude mouse lung xenografted with human MKN-45 cells at 10 mg/kg, po measured after 48 hrs by Western blot analysis", "type": "functional, organism-based"}},
  "note": "Active and inactive are the calls of the source. The rule behind the calls is not given here.",
  "data": [
    {"smiles": "O=C1CCC(N2C(=O)c3ccc(N4CCN(CC5CCN(C(=O)c6ccc(-c7cnc8ncc(Cc9ccc%10ncccc%10c9)n8n7)cc6F)CC5)CC4)cc3C2=O)C(=O)N1", "note": "(centres undefined)", "values": [
      {"measurement": "MRT inf", "setting": "[1]", "value": 2.56, "unit": "h"},
      {"measurement": "Activity", "setting": "[2]", "value": "Non-toxic"},
      {"measurement": "Activity", "setting": "MKN-45 [3]", "value": "Active"},
      {"measurement": "Activity", "setting": "[4]", "value": "Active"},
      {"measurement": "Activity", "setting": "Mus musculus [5]", "value": "Not active; Favorable Tissue Specificity Of Compound Observed"},
      {"measurement": "Activity", "setting": "[6]", "value": "Non-toxic"},
      {"measurement": "Activity", "setting": "[7]", "value": "inactive"},
      {"measurement": "half-life", "setting": "[8]", "value": 4.13, "unit": "h"},
      {"measurement": "Activity", "setting": "[9]", "value": "Active"},
      {"measurement": "AUC(0-inf)", "setting": "[10]", "value": 2520, "unit": "ng·h/mL"},
      {"measurement": "bioavailability", "setting": "[11]", "value": 16.3, "unit": "%"},
      {"measurement": "Tmax", "setting": "[12]", "value": 2, "unit": "h"},
      {"measurement": "MRT inf", "setting": "[13]", "value": 6.66, "unit": "h"},
      {"measurement": "Activity", "setting": "[14]", "value": 100, "unit": "%"},
      {"measurement": "half-life", "setting": "[15]", "value": 5.35, "unit": "h"},
      {"measurement": "IC50", "setting": "MKN-45 [16]", "value": 4.37, "unit": "nM"},
      {"measurement": "Activity", "setting": "MKN-45 [17]", "value": "Active"},
      {"measurement": "Activity", "setting": "Mus musculus [18]", "value": "Not active; Favorable Tissue Specificity Of Compound Observed"},
      {"measurement": "Activity", "setting": "Mus musculus [19]", "value": "Not active; Favorable Tissue Specificity Of Compound Observed"}
    ]}
  ]
}
